Tests used:
[1] = Dissolution time of crystalline PAP dispersed in standard detergent solution (HPLC); format: physicochemical; conditions: listed as crystals of PAP in beta form
Method: Successive samples of liquid phase, carefully filtered on filter of 0.45 micron, are drawn and the PAP concentration in solution is determined by HPLC.
Said times are determined by drawing some curves reporting in ordinate the PAP concentration dissolved in the aqueous phase (determined by HPLC) and in abscissae the sample drawing time, taking as 100% the PAP concentration asymptotically obtained at infinite time.
The previous test is repeated by dispersing 70 mg of anhydrous crystalline PAP (base 100%), respectively of crystals and microcrystals (sizes lower than 10 micron) of PAP in beta form, obtained as from Examples 2B and 2A respectively, in one liter of aqueous solution, prepared as above, stirred and thermostated at the temperature of 25° C.
Successive samples of liquid phase, carefully filtered on filter of 0.45 micron, are drawn, and the PAP concentration in solution is determined by HPLC.

[2] = Phase separation and sedimentation of 5% aqueous PAP dispersion at rest in graduated cylinder; format: physicochemical; conditions: 5% by weight PAP dispersion, rest at room temperature
Method: In a beaker immersed in a thermostatic bath an aqueous dispersion of alpha crystalline PAP in demineralized water at 5% by weight of PAP is prepared, by adding to 473.5 ml of demineralized water at the temperature of 50° C., kept under stirring with an anchor and a magnetic stirrer, 500 ppm of antifoam DB 100 and 1,000 ppm of surfactant Hostapur® SAS and 26.50 g of crystalline PAP in alpha form, of technical degree (titre: 94.3%) having average sizes higher than 100 micron. After 10 minutes of stirring at 50° C., the beaker is removed from the thermostatic bath and the aqueous suspension is transferred in a graduated cylinder. It is let rest at room temperature in the graduated cylinder.
An aqueous dispersion of crystalline PAP in demineralized water at 5% by weight of PAP is prepared, as described in Example 2A, by adding to 471.9 ml of demineralized water 500 ppm of antifoam DB 100 and 1000 ppm of surfactant Hostapur® SAS and 28.1 g of crystalline PAP in beta form of technical degree (titre: 89%), having average sizes higher than 100 micron, in particular 80% of the particles being comprised between 100 and 200 micron. After 10 minutes of stirring at 50° C., the beaker is removed and the suspension is transferred into a graduated cylinder, as in Example 2A. […] The separation of the supernatant aqueous phase increases after 2 hours to more than 70% of the total volume.

## O=C(CCCCCN1C(=O)c2ccccc2C1=O)OO [Example 2B, ε-phthalimido-peroxyhexanoic acid]
[1]; 70 mg PAP in 1 liter water 10° F. hardness + 1.70 g detergent IEC type B, 25° C.
  necessary time for the dissolution of 90% of the crystalline PAP initially dispersed: 60 min
[1]; 100 mg PAP in 1 liter water 10° F. hardness + 1.70 g detergent IEC type B, 40° C.
  necessary time for the dissolution of 90% of the crystalline PAP initially dispersed: 30 min
[2]; after 10 minutes
  separation of supernatant aqueous phase: 60 % of the total volume
[2]; after 2 hours
  separation of supernatant aqueous phase: more than 70 % of the total volume
[2]; 2A after two hours and 48 hours, 2B after 10 minutes
  solid phase thickening / sedimentation on the cylinder bottom: sedimentation of a precipitate on the bottom

Source: US7943657B2, “Imidoalkanpercarboxylic acids” (Solvay Solexis S.p.A., priority 2002, dated 2011)
